Data from patent US20230258624A1, “Ex vivo tumour immune microenvironment model, a method for preserving a tumour-specific immune cell profile in an ex vivo tumour immune microenvironment model and use of nanofibrillar cellulose” (UPM-Kymmene Corporation, priority 2022, published 2023).

Test system: PDECs
Experiment: Cytokine profiling (ELISA) of PDEC growth media
Format: cell-based, human
Procedure: Media (1 ml) collected from NFC-grown PDECs or PBMCs at day 3 and day 7 timepoints was stored at −80° C. until the day of analysis. […] Cell and matrix debris were removed after thawing by centrifugation (10 min, 10 000 G, RT). Cytokines secreted to growth media were analyzed with R&D DuoSetELISA kits (IL2: DY202-05, IL-10: DY217B-05, TNF-α: DY210-05, IFN-γ: DY285B-05, IL-4: DY204-05, IL-6: DY206-05, IL-1β/IL1F2: DY201-05, LAP (TGF-β1): DY246-05) together with DuoSet Ancillary Reagent Kit 2 (DY008), according to manufacturer's protocol. Briefly, plates were coated with capture antibody overnight at RT, washed 3 times and blocked with 1% BSA in PBS for 1 hour. Samples diluted in growth media were added and incubated for 2 hours at RT. After 3 washes, detection antibody was added and incubated for 2 hours at RT. After washes, Streptavidin-HRP was added and incubated for 20 min at RT, protected from light. After washes, Substrate solution was added for 20 min, protected from light, after which the reaction was stopped with stop solution and absorbance was immediately determined using a microplate reader set to 450 nm, and 540 nm to subtract background (Omega Fluostar, BMG Labtech).

**Q.** `O=C(O)CCCC[C@@H]1SC[C@@H]2NC(=O)N[C@@H]21` [biotin] was tested. Which “amount of inflammatory cytokine IFN-γ” value (1 μM biotin added to PDEC growth media, NFC cultures) did it give?
**A.** Its value is “clearly decreased”.

**Q.** What about the “inflammatory cytokine secretion into the media” value (biotin added to growth media after functionalization of the matrix) of the same molecule?
**A.** The value was “clearly decreased”.
